How the values were obtained:
[1] = test system: Rattus norvegicus; assay: Antialzheimer activity in CD rat assessed as reduction of amyloid beta42 level in CSF at 30 mg/kg, po after 3 hrs relative to control; type: functional; set-up: scale not given: the % may be the effect or the level left
[2] = molecular target: Gamma-secretase; assay: Inhibition of gamma secretase-mediated amyloid beta42 production in HEK293 cells expressing APP after 5 hrs by sandwich immunoassay; type: cell-based, Homo sapiens

| IC50 [2] [nM] | SMILES | Activity [1] [%] |
| --- | --- | --- |
| 190 | COc1cc(-c2noc3c2CCCC3(O)c2cc(F)cc(F)c2)ccc1-n1cnc(C)c1 (stereo unspecified) | 20 |
| 39 | COc1cc(-c2noc3c2CCCC3Nc2ccc(F)cc2)ccc1-n1cnc(C)c1 (stereo unspecified) | 58 |
| 29 | COc1cc(-c2noc3c2CCCC3NCc2cc(F)cc(F)c2)ccc1-n1cnc(C)c1 (stereo unspecified) | 20 |
